From patent publication US8173694B2, “Therapeutic agent” (Pentraxin Therapeutics Limited, priority 2001, dated 2012)

How the values were obtained:
[1] = biological target: serum amyloid P component (SAP) (Homo sapiens, UniProt P02743); assay: Inhibition of SAP binding to amyloid fibrils in vitro; conditions: in vitro inhibition of binding of SAP to amyloid fibrils, protocol of EP 0915088 page 10; read-out: IC50
From the text: A method for screening and testing inhibitors of serum amyloid P component (SAP) binding to amyloid fibrils in vitro was devised and used in collaboration with F Hoffmann-La Roche Ltd to identify a suitable lead molecule for drug development. A library of candidate compounds was screened accordingly. The subsequent collaborative medicinal chemistry programme led to synthesis of a family of dicarboxylic acid, pyrrolidone ring containing molecules, of which the most studied is (R)-1-[6-(R)-2-Carboxy-pyrrolidin-1-yl]-6-oxo-hexanoyl]pyrrolidine-2-carboxylic acid. This molecule and related compounds (EP-A-0915088) are modestly potent inhibitors of SAP binding to amyloid fibrils in vitro, with IC50 values around 0.5-1.0 μM.
Further studies determined that each of the following bis-D-Proline compounds were tested for their ability to deplete SAP in vivo as described above. Each of the compounds identified below successfully depleted SAP. In addition, certain of the compounds were further tested for in vitro inhibition of binding of SAP to amyloid fibrils in accordance with the protocol provided in EP 0915088 at page 10, as referenced above. The results are shown in the second column below, where applicable.

SAP [2] = biological target: SAP (Homo sapiens, UniProt P02743); conditions: known low molecular weight ligands; cited from earlier work
Sequence of SAP (Homo sapiens, UniProt P02743) (P02743 20-223): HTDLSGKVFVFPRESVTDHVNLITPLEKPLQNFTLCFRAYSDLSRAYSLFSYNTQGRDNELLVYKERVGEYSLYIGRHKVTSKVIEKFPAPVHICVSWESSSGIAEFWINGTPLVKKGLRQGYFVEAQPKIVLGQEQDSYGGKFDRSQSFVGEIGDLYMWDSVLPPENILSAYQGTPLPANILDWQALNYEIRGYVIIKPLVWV

SAP [3] = assay: SAP binding to experimentally induced amyloid deposits in mice; assay type: in vivo, mouse
From the text: The potency of (R)-1-[6-(R)-2-Carboxy-pyrrolidin-1-yl]-6-oxo-hexanoyl]pyrrolidine-2-carboxylic acid in vivo was initially considered to be consistent with its lower IC50 value in vitro. However the decameric assembly of pentameric SAP molecules, induced by the cross linking capacity of the palindromic drug, is an abnormal molecular configuration which, according to the present invention, will be recognised in vivo and promptly cleared from the circulation. This action of the drug, leading to massive depletion of SAP from the plasma, makes a critical contribution to removal of SAP from the amyloid deposits because the SAP in amyloid is derived from, and in equilibrium with, the plasma SAP pool.

Sequence of serum amyloid P component (SAP) (P02743 20-223): as above

Row | IC50 [1] [nM] | SMILES | further results
1 | 700 | O=C(O)[C@H]1CCCN1C(=O)Cc1cccc(CC(=O)N2CCC[C@@H]2C(=O)O)c1 | –
2 | – | NCCOP(=O)(O)O [phosphoethanolamine] | Affinity of binding by SAP (SAP [2]): about millimolar
3 | 500 | Cc1c(OCC(=O)N2CCC[C@@H]2C(=O)O)cccc1OCC(=O)N1CCC[C@@H]1C(=O)O | –
4 | 300 | O=C(O)[C@H]1CCCN1C(=O)COc1ccc(OCC(=O)N2CCC[C@@H]2C(=O)O)cc1 | –
5 | – | CO[C@@H]1O[C@@H]2COC(C)(C(=O)O)O[C@@H]2[C@H](O)[C@H]1O (stereo partly drawn) [MOβDG, methyl 4,6-O-(1-carboxyethylidene)-β-D-galactopyranoside] | Affinity of binding by SAP (SAP [2]): about millimolar
6 | 350 | O=C(O)[C@H]1CCCN1C(=O)Cc1ccc(CC(=O)N2CCC[C@@H]2C(=O)O)cc1 | –
7 | 400 | O=C(O)[C@H]1CCCN1C(=O)COc1ccccc1OCC(=O)N1CCC[C@@H]1C(=O)O | –
8 | – | CC(CS)C(=O)N1CCC[C@@H]1C(=O)O (stereo partly drawn) [1-(3-Mercapto-2-methyl-1-oxopropyl)-D-proline] | Binding of SAP to experimentally induced amyloid deposits (SAP [3]): inhibits binding of SAP; Dissociation of SAP already bound in amyloid deposits (SAP [3]): dissociates SAP that is already bound in the deposits
9 | 700 | O=C(O)[C@H]1CCCN1C(=O)c1ccc(C(=O)N2CCC[C@@H]2C(=O)O)cc1 | –
